Values belong to the molecule of their own block, whether it stands above or below them.
Legend:
ruminants = details: disclosed in WO00/28835; cited from earlier work
[1] = Blank without enzyme solution (purely chemical cleavage rate); assay type: physicochemical; details: no enzyme solution
Description: DD/LL-cyclo-Met-Met was taken up in TRIS/HCl buffer solution and the enzyme solution was added to it. As comparison and for assessing the purely chemical cleavage rate, in each case a blank was prepared without enzyme solution (see Table 1). A sample was taken from time to time and its composition was detected and quantified using a calibrated HPLC. The conversion was determined as the quotient of the content of methionine or methionylmethionine (Met-Met) and the content of DD/LL-cyclo-Met-Met (see FIG. 4). […] [table] The in vitro studies were carried out as in Example 11. The conversion was determined as the quotient of the content of methionine or methionylmethionine (Met-Met) and the content of cyclo-Met-Met (see FIG. 3). […] [table] The in vitro studies were carried out as in Example 11. The conversion was determined as the quotient of the content of methionine or D-Met-L-Thr and the content of cyclo-D-Met-L-Thr (see FIG. 9). […] [table]

[2] = Pelletizing and extrusion stability in feed production; assay type: physicochemical
[3] = Solubility (water, pH, bile/water mixtures); assay type: physicochemical
[4] = Leaching behavior from feed in water; assay type: physicochemical
[5] = test system: digestive enzymes from rainbow trout; test: In vitro digestion tests with digestive enzymes from rainbow trout; assay type: in vitro ADME, Oncorhynchus mykiss; details: pH 9
Description: (§1) The diketopiperazines were digested in vitro with digestive enzymes from carnivorous rainbow trout and omnivorous mirror carp. For this, the enzymes were removed from the digestive tracts of fishes and shrimps. The enzyme solutions obtained were then added to the diketopiperazines. For better comparability of the digestibility of dipeptides of various species, identical conditions were selected for the in vitro digestion studies (37° C., pH 9).
a) Isolation of the Digestive Enzymes from Rainbow Trout (Oncorhynchus mykiss)
The digestive enzymes were isolated based on the method of EID and MATTY (Aquaculture 1989, 79, 111-119). For this, the intestine was removed from five one-year-old rainbow trout (Oncorhynchus mykiss) and processed as described in Example 11. 56 ml of enzyme solution of the intestinal mucosa was obtained from 5 rainbow trout. The solution was stored in the dark at 4° C.
The in vitro studies were carried out as in Example 11. The conversion was determined as the quotient of the content of methionine or methionylmethionine (Met-Met) and the content of cyclo-Met-Met (see FIG. 3).
The test from Example 12b) was carried out similarly, with the cyclic dipeptides cyclo-D-Met-L-Phe and cyclo-D-Met-L-Lys (see FIGS. 7 and 8).

[6] = test system: digestive enzymes from mirror carp; test: In vitro digestion tests with digestive enzymes from mirror carp; assay type: in vitro ADME, Cyprinus carpio morpha noblis; details: pH 9
Description: as §1
a) Isolation of the Digestive Enzymes from Mirror Carp (Cyprinus carpio morpha noblis)
The digestive enzymes were isolated based on the method of EID and MATTY (Aquaculture 1989, 79, 111-119). For this, the intestine was removed from six one-year-old mirror carp (Cyprinus carpio morpha noblis), rinsed with water, cut open lengthwise and in each case the intestinal mucosa was scraped off. This was comminuted, together with crushed ice, in a mixer. The resultant suspension was treated with an ultrasonic rod, to disrupt any cells that were still intact. In order to separate the cell constituents and fat, the suspension was centrifuged for 30 minutes at 4° C., the homogenate was decanted off and sterilized with a trace of thimerosal. 49 ml of enzyme solution of the intestinal mucosa was obtained from 6 mirror carp. The solution was stored at 4° C. in the dark.
DD/LL-cyclo-Met-Met was taken up in TRIS/HCl buffer solution and the enzyme solution was added to it. As comparison and for assessing the purely chemical cleavage rate, in each case a blank was prepared without enzyme solution (see Table 1). A sample was taken from time to time and its composition was detected and quantified using a calibrated HPLC. The conversion was determined as the quotient of the content of methionine or methionylmethionine (Met-Met) and the content of DD/LL-cyclo-Met-Met (see FIG. 4).
The test from Example 11b) was carried out similarly, with the cyclic dipeptides cyclo-L-His-L-His and cyclo-D-Met-L-Leu (see FIGS. 5 and 6).

chicken = details: Baker et al. 1982; cited from earlier work
Litopenaeus vannamei = details: feeding tests; Forster and Dominy 2006; cited from earlier work

Molecule: CSCCC(O)C(=O)OC(C)C (centres unmarked) [HMBi]
biological value (ruminants): at least 50%

conversion in the blank to dipeptide DD/LL/meso-Met-Met or DL-methionine ([1]; TRIS/HCl buffer pH 9.5, 37° C.): hardly any conversion
pelletizing and extrusion stability [2]: good pelletizing and extrusion stability
solubility [3]: low solubility
leaching behavior [4]: particularly good leaching behavior
enzymatic cleavage by digestive enzymes of rainbow trout ([5]; in vitro, 37° C.): can be cleaved
Molecule: CSCCC1NC(=O)C(CCSC)NC1=O (racemic) [DD/LL/meso-cyclo-Met-Met, 3,6-bis[2-(methylthio)ethyl]-2,5-piperazinedione]

enzymatic cleavage by digestive enzymes of mirror carp [6]: can be cleaved
enzymatic cleavage by digestive enzymes of rainbow trout [5]: can be cleaved
Molecule: CSCC[C@@H]1NC(=O)[C@H](CCSC)NC1=O [cyclo-L-Met-L-Met]

reaction in the blank to dipeptide DD/LL-Met-Met or DL-methionine ([1]; TRIS/HCl buffer pH 9.5, bile, 37° C.): hardly any reaction
enzymatic cleavage by digestive enzymes of mirror carp ([6]; in vitro, 37° C.): can be cleaved
Molecule: CSCCC1NC(=O)C(CCSC)NC1=O (centres unmarked) [DD/LL-cyclo-Met-Met, 3,6-bis[2-(methylthio)ethyl]-2,5-piperazinedione]

conversion in the blank to dipeptide D-Met-L-Thr or free amino acids ([1]; TRIS/HCl buffer pH 9.5, 37° C.): hardly any conversion
Molecule: CSCC[C@H]1NC(=O)[C@H]([C@@H](C)O)NC1=O [cyclo-D-Met-L-Thr, 3-(R)-[2-(methylthio)ethyl]-6-(S)-(1-(R)-hydroxyethyl)-2,5-piperazinedione]

Molecule: CSCC[C@H]1NC(=O)[C@@H](CCSC)NC1=O [cyclo-D-Met-D-Met]
enzymatic cleavage by digestive enzymes of mirror carp ([6]; in vitro, 37° C.): can be cleaved
enzymatic cleavage by digestive enzymes of rainbow trout ([5]; in vitro, 37° C.): can be cleaved

Molecule: poly-L-methionine
biological value (chicken): no biological value

Molecule: CSCC[C@@H]1NC(=O)[C@@H](CCSC)NC1=O [cyclo-D-Met-L-Met]
enzymatic cleavage by digestive enzymes of mirror carp ([6]; in vitro, 37° C.): can be cleaved
enzymatic cleavage by digestive enzymes of rainbow trout ([5]; in vitro, 37° C.): can be cleaved

Molecule: CSCCC(N)C(=O)O (racemic) [DL-methionine]
efficacy relative to L-methionine (Litopenaeus vannamei): same efficacy as L-methionine

Source: patent US20110295006A1, “CYCLIC DIPEPTIDES AS FEED ADDITIVES” (EVONIK DEGUSSA GMBH, priority 2010, published 2011)
